Measured values: patent US11396517B1, “Exo-aza spiro inhibitors of menin-MLL interaction” (Janssen Pharmaceutica NV, priority 2017, dated 2022)
Like-named read-outs stand apart in the source and are kept apart here.

How the values were obtained:
[1] = molecular target: T1, menin (Homo sapiens, UniProt O00255, T541A); test: Menin/MLL homogenous time-resolved fluorescence (HTRF) assay; format: binding
T1 construct: Menin (a.a. 1-610-6×his tag)
T1 sequence (O00255 with tags, fused parts or gaps T541A): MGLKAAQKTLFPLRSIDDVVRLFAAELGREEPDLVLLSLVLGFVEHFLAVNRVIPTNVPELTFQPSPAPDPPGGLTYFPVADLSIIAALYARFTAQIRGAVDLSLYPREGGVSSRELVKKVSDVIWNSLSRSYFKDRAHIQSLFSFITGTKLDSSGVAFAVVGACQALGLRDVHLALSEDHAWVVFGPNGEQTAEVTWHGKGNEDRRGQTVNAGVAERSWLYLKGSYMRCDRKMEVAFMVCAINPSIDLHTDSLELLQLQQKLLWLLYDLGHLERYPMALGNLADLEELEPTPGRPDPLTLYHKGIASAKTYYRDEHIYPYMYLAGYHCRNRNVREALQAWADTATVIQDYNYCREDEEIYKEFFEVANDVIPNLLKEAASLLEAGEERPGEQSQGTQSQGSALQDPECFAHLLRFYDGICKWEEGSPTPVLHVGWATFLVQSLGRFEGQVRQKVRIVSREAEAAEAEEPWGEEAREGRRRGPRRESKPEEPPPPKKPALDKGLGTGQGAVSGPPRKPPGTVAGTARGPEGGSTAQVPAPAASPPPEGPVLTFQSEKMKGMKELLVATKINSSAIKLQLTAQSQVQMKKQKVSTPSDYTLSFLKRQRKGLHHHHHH
Method in brief: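 Terbium-labeled menin (aa 1-610, His-tagged; […]) preincubated 5 min with compound, then 75 nM FITC-MBM1 peptide for 15 min, ambient, Tris pH 7.5, 0.5% DMSO. HTRF 520/490 ratio; 11-point 3-fold titration; IC50 from % inhibition fit.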

[2] = tested on: MV-4-11; test: Proliferation assay A (spheroid assay) MV-4-11; format: cell-based, human; conditions: MV-4-11 cells, 8 d, AUC of confluence against time, absolute IC50, read-out: (3a) Spheroid assay MV-4-11 (IC50(μM)) Assay A
Method in brief: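 Spheroid growth in ultra-low-attachment round-bottom wells (1,500 MV-4-11, 300 MOLM14 or 750 K562 cells), compound titration at 0.3% DMSO, 8 d at 37° C. Confluence imaged every 4 h; AUC from t=0 baseline expressed as % of DMSO control and fitted for absolute IC50.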

[3] = tested on: MOLM14; test: Proliferation assay A (spheroid assay) MOLM14; format: cell-based, human; conditions: MOLM14 cells, 8 d, AUC of confluence against time, absolute IC50, read-out: (3a) Spheroid assay MOLM14 (IC50(μM)) Assay A
Experimental: (§1) 3a) Proliferation Assay A
(§2) The anti-proliferative effect of menin/MLL protein/protein interaction inhibitor test compounds was assessed in human leukemia cell lines. The cell lines MV-4-11 and MOLM14 harbor MILL translocations and express the MILL fusion proteins MLL-AF4 and MLL-AF9, respectively, as well as the wildtype protein from the second allele. […] K562 was used as a control cell line containing two MLL wildtype alleles in order to exclude compounds that display general cytotoxic effects.
(§3) MV-4-11 and MOLM14 were cultured in RPMI-1640 (Sigma Aldrich) supplemented with 10% fetal bovine serum (HyClone), 2 mM L-glutamine (Sigma Aldrich) and 50 μg/ml gentamycin (Gibco). K562 were propagated in RPMI-1640 (Sigma Aldrich) supplemented with 20% fetal bovine serum (HyClone), 2 mM L-glutamine (Sigma Aldrich) and 50 μg/ml gentamycin (Gibco).
(§4) In order to assess the anti-proliferative effects, 1,500 MV-4-11, 300 MOLM14 or 750 K562 cells were seeded in 200 μl media per well in 96-well round bottom, ultra-low attachment plates (Costar, catalogue number 7007). Cell seeding numbers were chosen based on growth curves to ensure linear growth throughout the experiment. Test compounds were added at different concentrations and the DMSO content was normalized to 0.3%. Cells were incubated for 8 d at 37° C. and 5% CO2. Spheroid like growth was monitored in real-time by live-cell imaging (IncuCyteZOOM, Essenbio, 4× objective) acquiring one image every four hours for 8 d. Confluence (%) as a measure of spheroid size was determined using an integrated analysis tool.
In order to determine the cumulative effect of the test compounds over time, the area under the curve (AUC) in a plot of confluence against time was calculated. Confluence at the beginning of the experiment (t=0) was used as baseline for the AUC calculation.
Absolute IC50 values were calculated according to the following procedure: % Control=(AUC sample/AUC control)*100
AUC control mean AUC of control values (cells without compound/DMSO as vehicle control)
A non-linear curve fit was applied using the least squares (ordinary) fit method to the plot of % control versus compound concentration. Based on this, the absolute IC50 value (half maximal inhibitory concentration of the test compound causing an anti-proliferative effect of 50% relative to the vehicle control) was calculated.

[4] = tested on: K562; test: Proliferation assay A (spheroid assay) K562 control cell line; format: cell-based; conditions: Homo sapiens, 192 h; K562 cells (MLL wildtype control), 8 d, AUC of confluence against time; read-out: (3a) Spheroid assay K562 Assay A
Experimental: as §1, §2
MV-4-11 and MOLM14 were cultured in RPMI-1640 (Sigma Aldrich) supplemented with 10% fetal bovine serum (HyClone), 2 mM L-glutamine (Sigma Aldrich) and 50 μg/ml gentamycin (Gibco). […]
In order to assess the anti-proliferative effects, 1,500 MV-4-11, 300 MOLM14 or 750 K562 cells were seeded in 200 μl media per well in 96-well round bottom, ultra-low attachment plates (Costar, catalogue number 7007). […] Spheroid like growth was monitored in real-time by live-cell imaging (IncuCyteZOOM, Essenbio, 4× objective) acquiring one image every four hours for 8 d. Confluence (%) as a measure of spheroid size was determined using an integrated analysis tool.
In order to determine the cumulative effect of the test compounds over time, the area under the curve (AUC) in a plot of confluence against time was calculated. […]

[5] = tested on: MV-4-11; test: Proliferation assay B (spheroid assay) MV-4-11; format: cell-based, human; conditions: MV-4-11 cells, confluence at day 8, absolute IC50, read-out: (3b) Spheroid assay MV-4--11 (IC50(μM)) Assay B
Method in brief: (§5)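 Leukemia cells grown as spheroids in ultra-low-attachment round-bottom wells with compound at 0.3% DMSO for 8 d at 37 °C. Confluence imaged at day 8 as spheroid size, normalized between DMSO and 1 μM staurosporine controls; absolute IC50 from sigmoidal fit with bounds fixed at 0 and 100%.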

[6] = tested on: K562; test: Proliferation assay B (spheroid assay) K562 control cell line; format: cell-based; conditions: Homo sapiens, 192 h; K562 cells (MLL wildtype control), confluence at day 8; read-out: (3b) Spheroid assay K562 Assay B
Experimental: 3b) Proliferation Assay B
as §2, §3
as §4, with “MOLM14 cells” for “MOLM14”, “measured” for “monitored”, “images at day 8.” for “one image every four hours for 8 d.”
In order to determine the effect of the test compounds over time, the confluence in each well as a measure of spheroid size, was calculated. Confluence […] at the beginning of the experiment (t=0) was used as baseline for the calculation.
Absolute IC50 values were calculated as percent change in confluence as follows:
LC=Low Control: cells treated with 1 μM of the cytotoxic agent staurosporin
HC=High Control: Mean confluence (%) (DMSO treated cells) % Effect=100−(100*(Sample−LC)/(HC−LC))
To determine the IC50 a curve is fitted to the plot of % Effect vs Log 10 compound concentration using a sigmoidal fit with a variable slope and fixing the maximum to 100% and the minimum to 0%.

[7] = tested on: MOLM14; test: Proliferation assay B (spheroid assay) MOLM14; format: cell-based, human; conditions: MOLM14 cells, confluence at day 8, absolute IC50, read-out: (3b) Spheroid assay MOLM14 (IC50(μM)) Assay B
Method in brief: as §5

[8] = location 1, read-out: (2) location 1 Menin HTRF assay (IC50 (nM))
[9] = location 2, read-out: (2) location 2 Menin HTRF assay (IC50 (nM))

IC50 ([2]; Homo sapiens, MV4-11, 192 h) [µM] | IC50 ([3]; Homo sapiens, MOLM-14, 192 h) [µM] | IC50 [1, 9] [nM] | IC50 ([7]; Homo sapiens, MOLM-14, 192 h) [µM] | SMILES | also measured
0.14 | 1.02 |  |  | FC(F)(F)Cc1cc2c(N3CC4(CC[C@@H](NCc5ccccc5)C4)C3)ncnc2s1 (single isomer, unassigned) [Compound 47] | IC50 [1, 8]: 15.5 nM; IC50 [4]: > 15000 nM
 |  | 1.8 | 0.63 | CNC(=O)c1ccc(NC2CC3(CCN(c4ncnc5sc(CC(F)(F)F)cc45)C3)C2)cc1OCCN(C)C (single isomer, unassigned) [Compound 77] | IC50 ([5]; Homo sapiens, MV4-11, 192 h): 0.19 µM; IC50 [6]: 7850 nM
0.25 | 1.3 | 2.6 | 1.36 | CNC(=O)c1ccc(NC2CCC3(C2)CN(c2ncnc4sc(CC(F)(F)F)cc24)C3)cc1 (single isomer, unassigned) [Compound 98] | 
 |  | 1.6 | 2.26 | O=c1[nH]c2ccc(CNC3CCC4(C3)CN(c3ncnc5sc(CC(F)(F)F)cc35)C4)cc2[nH]1 (single isomer, unassigned) [Compound 109] | IC50 [2]: 0.24 µM; IC50 [3]: 3.24 µM
 |  | 206 |  | CN1CC=C(c2cc(NC3CC4(CCN(c5ncnc6sc(CC(F)(F)F)cc56)C4)C3)ccc2C(C)(C#N)C#N)CC1 (single isomer, unassigned) [Compound 246] | IC50 [5]: 0.26 µM; IC50 [6]: 3970 nM; IC50 [7]: 0.13 µM
 |  | 3.1 | 2.44 | N#CCc1ccc(NC2CC3(CCN(c4ncnc5sc(CC(F)(F)F)cc45)C3)C2)cc1 (single isomer, unassigned) [Compound 307] | IC50 [2]: 1.05 µM; IC50 [3]: 3.38 µM
0.35 | 1.58 |  |  | FC(F)(F)Cc1cc2c(N3CCC4(CC(NCc5ccccc5)C4)C3)ncnc2s1 (stereo not shown) [Compound 48] | IC50 [1, 8]: 12 nM; IC50 [4]: > 15000 nM
2.15 | 2.28 | 47.9 |  | Cc1nc(N2CC3(CCC(NCc4ccc5[nH]c(=O)[nH]c5c4)C3)C2)c2cc(CC(F)(F)F)sc2n1 (stereo not shown) [Compound 119] | 
2.13 | 2.9 | 52.4 |  | CNc1nc(N2CC3(CCC(NCc4ccc5[nH]c(=O)[nH]c5c4)C3)C2)c2cc(CC(F)(F)F)sc2n1 (stereo not shown) [Compound 120] | 
1.94 | 1.68 | 32.2 |  | N#CCc1ccc(NC2CCC3(CCN(c4ncnc5sc(CC(F)(F)F)cc45)C3)C2)cc1 (stereo not shown) [Compound 143] | 
2.65 | > 3.75 | 16.2 |  | O=c1[nH]c2cc(NC3CCC4(C3)CN(c3ncnc5sc(CC(F)(F)F)cc35)C4)ccc2o1 (stereo not shown) [Compound 285] | 
> 3.75 | > 3.75 | 135 |  | FC(F)(F)Cc1cc2c(N3CC4(CCC(Nc5ccc6cc(C(F)(F)F)[nH]c6c5)C4)C3)ncnc2s1 (stereo not shown) [Compound 288] | 
 |  |  | 1.57 | FC(F)(F)Cc1cc2c(N3CCC4(CC(Nc5ccc(-c6nnc[nH]6)cc5)C4)C3)ncnc2s1 (stereo not shown) [Compound 370] | IC50 ([5]; Homo sapiens, MV4-11, 192 h): 0.35 µM; IC50 [6]: 7300 nM
 |  |  | 0.3 | O=C(NCC(F)(F)F)c1ccc(NC2CC3(CCN(c4ncnc5sc(CC(F)(F)F)cc45)C3)C2)cc1 (stereo not shown) [Compound 371] | IC50 ([5]; Homo sapiens, MV4-11, 192 h): 0.08 µM; IC50 [6]: 6480 nM
0.55 | 1.84 |  |  | FC(F)(F)Cc1cc2c(N3CC4(CC(NCc5ccccc5)C4)C3)ncnc2s1 [Compound 428] | IC50 [1, 8]: 23.8 nM
